Experimental data as given in US10626100B2, “Selective HDAC6 inhibitors” (The Trustees of Columbia University in the City of New York, priority 2013, dated 2020).
“Also recorded” adds a separate entry of the source.

Assays:
[1] = test system: LNCaP (transformed) cells; assay: Combination with anti-cancer agents in LNCaP cells; assay type: cell-based
Mouse toxicity study = assay type: in vivo; details: mice, intraperitoneal, daily for 5 days, 100, 200, or 300 mg/kg
Protocol: FIG. 6. Average weight of immune-deficient mice treated daily by 30 μL intraperitoneal injection with indicated doses of compound 8. DMSO is the vehicle control.
(§1) Toxicity of compound 8 in mice was determined. […] Mice were intraperitoneally injected daily for 5 days with 100, 200, or 300 mg/kg compound 8. […] The effects of compound 8 on the acetylation of alpha-tubulin and histones in the spleen isolated from mice treated with compound 8 were analyzed at three time points after the administration of the drug.

[2] = test system: androgen-dependent CWR22 human prostate cancer xenograft; assay: CWR22 human prostate cancer xenograft in nude mice; assay type: in vivo
[3] = test system: acetylated alpha-tubulin and acetylated histone H3 in HFS (human foreskin fibroblast) cells; assay: Accumulation of acetylated proteins in HFS normal cells (western blot); assay type: cell-based
Protocol: (§2) FIG. 5. Western blots of acetylated alpha-tubulin (Acet-Tub) and acetylated histone H3 (Acet-H3) in HFS (normal) and LNCaP (transformed) cells treated with compound 8 at 8, 16, 32, and 64 μM for 24 h. Western blots of GAPDH and total histone H3 (Total-H3) are loading controls.
(§3) Recombinant HDAC1 and HDAC6 are used to evaluate the selective inhibitory potency of each compound. Cell based assays: Normal cells (Human Foreskin Fibroblast cells), LNCaP (human prostate cancer cells), MCF-7 (human breast cancer cells, A549 (human adenocarcinoma of lung cells) and ARP-1 (human multiple myeloma cells) are used in these assays. Cells were cultured for up to 72 hr without and with the potential HDAC6-selective inhibitor. SAHA was used as a control. Cell number and cell viability were determined by enumeration. Proteins were extracted from cells and assayed for accumulation of acetylated tubulin and acetylated histones. All methods are described in Namdar et al., PNAS, 2010, 107:20003-8. In vivo animal studies: Potential HDAC6 inhibitor compounds are further assayed by administration to mice for up to 5 days with daily injections. Animals are sacrificed and tissues are analyzed for accumulation of acetylated tubulin and acetylated histones.

[4] = test system: acetylated alpha-tubulin and acetylated histone H3 in spleen; assay: Acetylation of alpha-tubulin and histones in spleen of treated mice; assay type: in vivo
Protocol: FIG. 7. Immunoblots of spleens harvested at indicated times after the last injection. Immune-deficient mice were treated daily by 30 μL intraperitoneal injection with indicated doses of compound 8. DMSO is the vehicle control. Western blots of acetylated alpha-tubulin (Acet-Tub) and acetylated histone H3 (Acet-H3). Western blots of HSP90 and total histone H3 (Total-H3) are loading controls.
as §3, §1

HDAC1 = HDAC1 (Homo sapiens, UniProt Q13547); assay: Inhibition of recombinant HDAC1; assay type: biochemical; details: read-out: IC50 (nM) HCAC1
HDAC6 = biological target: T1, HDAC6 (Homo sapiens, UniProt Q9UBN7); assay: Inhibition of recombinant HDAC6
T1 sequence (Q9UBN7 1-1215): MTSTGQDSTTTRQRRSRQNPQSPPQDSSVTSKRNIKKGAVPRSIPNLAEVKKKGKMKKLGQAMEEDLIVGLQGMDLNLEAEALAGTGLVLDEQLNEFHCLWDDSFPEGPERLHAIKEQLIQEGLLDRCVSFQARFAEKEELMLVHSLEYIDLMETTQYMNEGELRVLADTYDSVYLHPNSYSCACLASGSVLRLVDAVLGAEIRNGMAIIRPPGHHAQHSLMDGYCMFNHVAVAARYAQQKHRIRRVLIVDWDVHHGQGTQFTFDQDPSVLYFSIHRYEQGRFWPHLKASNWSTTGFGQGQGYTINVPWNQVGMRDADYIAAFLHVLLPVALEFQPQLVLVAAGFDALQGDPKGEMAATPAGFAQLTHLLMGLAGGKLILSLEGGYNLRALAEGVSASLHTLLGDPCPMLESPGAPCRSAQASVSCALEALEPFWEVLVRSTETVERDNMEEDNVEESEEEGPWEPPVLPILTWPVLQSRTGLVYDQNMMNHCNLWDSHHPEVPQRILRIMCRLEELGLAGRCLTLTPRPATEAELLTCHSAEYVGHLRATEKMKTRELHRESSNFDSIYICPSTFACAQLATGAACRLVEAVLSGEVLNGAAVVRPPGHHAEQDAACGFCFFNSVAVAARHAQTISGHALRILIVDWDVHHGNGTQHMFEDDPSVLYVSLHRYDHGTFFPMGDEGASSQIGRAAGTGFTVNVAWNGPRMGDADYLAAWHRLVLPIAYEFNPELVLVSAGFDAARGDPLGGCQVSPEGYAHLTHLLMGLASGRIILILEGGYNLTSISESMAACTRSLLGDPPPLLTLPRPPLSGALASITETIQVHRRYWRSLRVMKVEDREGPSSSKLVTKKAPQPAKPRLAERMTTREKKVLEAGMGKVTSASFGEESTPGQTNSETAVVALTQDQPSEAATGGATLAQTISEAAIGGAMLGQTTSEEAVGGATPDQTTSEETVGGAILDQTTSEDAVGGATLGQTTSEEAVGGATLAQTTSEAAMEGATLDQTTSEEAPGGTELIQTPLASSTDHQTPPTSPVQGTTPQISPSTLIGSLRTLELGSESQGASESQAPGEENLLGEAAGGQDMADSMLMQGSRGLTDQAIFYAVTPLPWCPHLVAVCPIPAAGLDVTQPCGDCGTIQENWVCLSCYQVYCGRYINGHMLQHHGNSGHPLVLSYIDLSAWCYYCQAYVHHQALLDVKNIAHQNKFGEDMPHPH

[5] = test system: acetylated alpha-tubulin and acetylated histone H3 in LNCaP (human prostate cancer cells); assay: Accumulation of acetylated proteins in LNCaP cells (western blot); assay type: cell-based
Protocol: FIG. 2. Blot showing accumulation of acetylated alpha-tubulin and acetylated histone H3 in LNCaP (human prostate cancer cells) cultured with compounds 8 or 11. GADPH used as loading control.
as §2, §3

[6] = 21 days, daily 300 mg/kg compound 8 or weekly 3 mg/kg etoposide alone
[7] = HFS cells, 8 μM to 64 μM, 24 h, FIG. 5
[8] = normal cells, concentrations as high as 16 μM
[9] = LNCaP cells, 8 μM to 64 μM, 24 h, FIG. 5
[10] = transformed cells, concentrations as high as 16 μM

Chain of HDAC1 (Q13547 whole entry): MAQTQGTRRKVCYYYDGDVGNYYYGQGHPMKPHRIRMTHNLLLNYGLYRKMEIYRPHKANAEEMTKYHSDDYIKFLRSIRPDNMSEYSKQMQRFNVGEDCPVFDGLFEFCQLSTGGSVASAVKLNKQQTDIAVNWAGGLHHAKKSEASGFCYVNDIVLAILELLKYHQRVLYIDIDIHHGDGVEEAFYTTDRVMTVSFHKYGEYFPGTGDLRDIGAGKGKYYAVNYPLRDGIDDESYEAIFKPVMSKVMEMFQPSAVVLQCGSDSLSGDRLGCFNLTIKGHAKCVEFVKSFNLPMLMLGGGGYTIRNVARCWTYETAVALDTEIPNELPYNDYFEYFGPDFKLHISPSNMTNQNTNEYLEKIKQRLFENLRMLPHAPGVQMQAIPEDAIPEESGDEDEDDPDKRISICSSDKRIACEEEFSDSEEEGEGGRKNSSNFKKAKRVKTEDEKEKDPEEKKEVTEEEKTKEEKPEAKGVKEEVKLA

Q: With `O=C(NO)c1ccc(CN(CCO)C(=O)Cc2ccccc2)cc1` [Compound 8, N-hydroxy-4-((N-(2-hydroxyethyl)-2-phenylacetamido)methyl) benzamide] as the compound, how does the “cell growth and cell viability in combination with etoposide” value ([1]; LNCaP, 50 μM etoposide and 16 μM compound 8, 72 h, versus etoposide alone) read?
A: inhibition in cell growth and loss of cell viability to a greater extent than LNCaP cells cultured with etoposide alone; also recorded: enhances etoposide or SAHA-induced transformed cell death

Q: And the “cell death in combination with SAHA” value ([1]; LNCaP, compound 8 and 5 μM SAHA, 72 h, versus SAHA alone)?
A: cell death is enhanced; also recorded: enhances etoposide or SAHA-induced transformed cell death

Q: What about the “cell death in combination with paclitaxel” value ([1]; LNCaP, paclitaxel and compound 8, 72 h, versus either drug alone) of the same compound?
A: increases cell death

Q: What about the “cytotoxicity of anti-cancer drugs in transformed cells cultured with compound 8” value ([1]; transformed cells, induction of apoptosis and accumulation of DNA damage) of the same compound?
A: enhances the cytotoxicity of anti-cancer drugs

Q: What about the tolerability in animals (Mouse toxicity study) of the same compound?
A: well tolerated

Q: And the weight loss (Mouse toxicity study; FIG. 6)?
A: no weight loss

Q: What about the “growth of established CWR22 tumors, single agent” value [2, 6] of the same compound?
A: no significant suppression of the growth

Q: What about the “weight loss, single agent” value [2, 6] of the same compound?
A: no weight loss

Q: What about the “growth of established CWR22 tumors, combination with etoposide” value ([2]; daily compound 8 and weekly etoposide, versus vehicle-treated control animals) of the same compound?
A: causes suppression of the growth of established CWR22 tumors; also recorded: significantly enhances the anti-tumor effect of etoposide

Q: And the “accumulation of acetylated alpha-tubulin” value [3, 7]?
A: caused accumulation of acetylated alpha-tubulin

Q: And the “accumulation of acetylated histones” value [3, 7]?
A: not of acetylated histones

Q: And the “accumulation of acetylated PRX” value [3, 8]?
A: selectively induced accumulation of acetylated alpha-tubulin and acetylated PRX

Q: What about the “accumulation of acetylated alpha-tubulin” value [3, 8] of the same compound?
A: selectively induced accumulation of acetylated alpha-tubulin and acetylated PRX

Q: What about the “accumulation of acetylated histones” value [3, 8] of the same compound?
A: not of acetylated histones

Q: And the “accumulation of acetylated tubulin in the spleen” value ([4]; 1.5 h after injection, FIG. 7)?
A: increased accumulation of acetylated tubulin

Q: And the “accumulation of acetylated tubulin in the spleen” value ([4]; 5 h after injection)?
A: reduced to the level seen in vehicle-treated controls

Q: And the “accumulation of acetylated histones in the spleen” value ([4]; FIG. 7)?
A: no detectable accumulation of acetylated histones

Q: What about the IC50 (HDAC1) of the same compound?
A: 1130 nM

Q: And the “potency as inhibitor of HDAC6 compared with SAHA” value (HDAC6)?
A: one hundred fold more potent

Q: And the IC50 (HDAC6; read-out: IC50 (nM) HCAC6, recombinant HDAC6)?
A: 31 nM

Q: What about the “accumulation of acetylated alpha-tubulin” value [5, 9] of the same compound?
A: caused accumulation of acetylated alpha-tubulin

Q: What about the “accumulation of acetylated histones” value [5, 9] of the same compound?
A: not of acetylated histones

Q: What about the “accumulation of acetylated histones (H3)” value ([5]; LNCaP cells, FIG. 2) of the same compound?
A: did not cause accumulation of actylated histones; also recorded: without induction of H3 acetylation

Q: And the “accumulation of acetylated α-tubulin” value ([5]; LNCaP cells, FIG. 2)?
A: caused the accumulation of acetylated α-tubulin; also recorded: significant levels of tubulin acylation were present

Q: And the “accumulation of acetylated alpha-tubulin” value [5, 10]?
A: selectively induced accumulation of acetylated alpha-tubulin and acetylated PRX

Q: And the “accumulation of acetylated histones” value [5, 10]?
A: not of acetylated histones
